Patent US20210052600A1, “THERAPEUTIC AGENTS FOR STRESS URINARY INCONTINENCE AND INCOTINENCE OF FECES” (Takeda Pharmaceutical Company Limited, priority 2017, published 2021)

Key:
[1] = system: urethral resistance increasing effect of Compound A′; assay: Influence of antagonists (SB 242084, methiothepin) on urethral resistance increasing effect of Compound A′ in rats; assay type: in vivo, rat; details: mean ± SEM; for LPP Post: 30 minutes after Compound A′; for LPP Increase: Post minus Pre; for LPP Pre: before administration
Procedure: Ninety female rats of SD strain were used. […] Isoflurane inhalation was added during the surgery, if necessary. In the experiment with intrathecal administration, the dura mater was exposed by laminectomy and then partially opened by incision, through which a catheter (PE-10) filled with saline was then implanted at the level of the L6-S1 site, followed by the closing of the incision. After opening of the abdomen, a catheter (PE-90) was inserted into the bladder. In order to secure reduced urethral resistance, unilateral nerve to iliococcygeus and pubococcygeus muscles was transected. For intraduodenal administration, another catheter (PE-50) was inserted into the duodenum in advance. The abdominal muscle and skin were each closed with sutures. Two (right and left) sites of abdominal skin near the diaphragm were cut to expose abdominal muscle. The bladder was emptied through the catheter, followed by the injection of 0.2 to 0.3 mL of Evans blue solution. Change in intravesical pressure was recorded using the bladder catheter via a pressure transducer, an electric signal amplifier, and an analog-to-digital converter. While change in intravesical pressure was recorded, the presence or absence of fluid leakage from the urethral orifice was observed under the electrical stimulation of the exposed abdominal muscle using an electrical stimulator and an isolator. […] The peak of the intravesical pressure during the stimulation of the abdominal muscle was measured, and the lowest pressure at which the fluid leakage was observed among the trials was defined as LPP for the electrical abdominal muscle stimulation method. In order to examine whether the urethral resistance increasing effect of Compound A′ is based on its agonistic potency on 5-HT2C receptors, SB 242084, methiothepin, or a vehicle was intravenously administered, and Compound A′ or a vehicle was intraduodenally administered 5 minutes later. SB 242084 was dissolved in a mixed solution of N,N-dimethylacetamide and polyethylene glycol 400 (1:1) and administered at 0.03 mg/0.5 mL/kg, 0.1 mg/0.5 mL/kg and 0.3 mg/0.5 mL/kg. Methiothepin was dissolved in saline and administered at 0.03 mg/0.5 mL/kg. 0.1 mg/0.5 mL/kg and 0.3 mg/0.5 mL/kg. Compound A′ was suspended in 0.5% MC and administered at 3 mg/mL/kg. LPP was measured again 30 minutes after Compound A′ administration. In order to examine where Compound A′ works in the body to increase urethral resistance, the blocking of the effect of Compound A′ was confirmed by blocking the functions of Compound A′ by giving methiothepin at a particular site in the body. Particularly, in the experiment with intrathecal administration, methiothepin or a vehicle was intrathecally administered, and Compound A′ or a vehicle was intraduodenally administered 5 minutes later. Methiothepin was dissolved in saline and 20 μL of the obtained solution was administered. Compound A′ was suspended in 0.5% MC and administered at 3 mg/mL/kg. LPP was measured again 30 minutes after Compound A′ administration.
Regarding change in LPP before and after drug administration, the differences between the mean values of the Compound A′-treated and vehicle-treated groups were analyzed by the Student's t test or the Welch's test. In order to analyze the influence of the antagonists on the effect of Compound A′, the differences between the mean values of the SB 242084- or methiothepin- and Compound A′-administered group and the vehicle- and Compound A′-administered group were analyzed by the one-tailed Williams' test.

[2] = system: urethral resistance; assay: Urethral resistance (LPP) during intravesical pressure rise by electrical stimulation of rat abdominal muscle; assay type: in vivo; details: mean ± SEM; for LPP Post: 30 minutes after administration; for LPP Increase: Post minus Pre; for LPP Pre: before administration
Procedure: Fifty six female rats of Sprague-Dawley strain (hereinafter, referred to as “SD strain”) were used. The rats were anesthetized with urethane, and their spinal cord was transected at the T8-T9 (the eighth thoracic cord—the ninth thoracic cord) level for the elimination of reflex voiding. Isoflurane inhalation was added, if necessary. After opening of the abdomen, a catheter (PE-100) was inserted into the bladder. In order to secure reduced urethral resistance, unilateral nerve to iliococcygeus and pubococcygeus muscles was transected. For intraduodenal administration, another catheter (PE-50) was inserted into the duodenum in advance. The abdominal muscle and skin were each closed with sutures. Two (right and left) sites of abdominal skin near the diaphragm were cut to expose abdominal muscle. The bladder was emptied through the catheter, followed by the injection of 0.2 to 0.3 mL of 0.1% Evans blue solution. Change in intravesical pressure was recorded using the bladder catheter via a pressure transducer, an electric signal amplifier, and an analog-to-digital converter. While change in intravesical pressure was recorded, the presence or absence of fluid leakage from the urethral orifice was observed under the electrical stimulation of the exposed abdominal muscle using an electrical stimulator and an isolator. […] The peak of the intravesical pressure during the stimulation of the abdominal muscle was measured, and the lowest pressure at which the fluid leakage was observed among the trials was defined as leak point pressure (hereinafter, referred to as “LPP”) for the electrical abdominal muscle stimulation method and used as an index for urethral resistance. Each drug was evaluated for its effect by comparing LPP before drug administration with that after drug administration. […] The drugs were suspended in 0.5% methylcellulose solution (MC). […] LPP was measured again 30 minutes after administration. Regarding change in LPP before and after drug administration, the differences between the mean values of the drug-treated and vehicle groups were analyzed by the one-tailed Williams' test.

[3] = system: urethra-closing reflex response; assay: Urethra-closing reflex response induced by intravesical pressure rise in rats; assay type: in vivo, rat; details: 3 mg/kg i.d., mean ± SEM
Procedure: Thirty-two female rats of SD strain were used. The rats were anesthetized with urethane. Isoflurane inhalation was added during the surgery, if necessary. Their spinal cord was transected at the T8-T9 (the eighth thoracic cord—the ninth thoracic cord) level to eliminate the reflex voiding and to inhibit the transition from the urine storage phase to the voiding phase in the voiding cycle. After opening of the abdomen, the bladder neck was ligated with suture, and a catheter (PE-100) was inserted into the bladder. The bladder catheter was connected to a pressure transducer and a saline-containing reservoir via three-way stopcocks. A microtip transducer catheter was inserted from the urethral orifice toward the bladder so that its transducer was inserted into the urethra. Local change in pressure within the urethra (intraurethral pressure) was recorded via an electric signal amplifier and an analog-to-digital converter. […] Then, the reservoir was brought back to the original position to adjust the intravesical pressure to its baseline. Such change in intraurethral pressure induced by intravesical pressure rise was repeatedly measured, and the mean value from the last 2 trials was used as a Pre value. The vehicle used was 0.5% MC. […] Thirty minutes after administration, the change in intraurethral pressure induced by intravesical pressure rise was measured again and used as a Post value. The average value before intravesical pressure rise was subtracted from the average value during intravesical pressure rise, and the subtracted value was used as urethra-closing reflex response. The ratio of the Post value to the Pre value was calculated.

[4] = system: anus-closing function increasing effect of Compound A′; assay: Influence of SB 242084 on Compound A′-induced rat anus-closing function increasing effect (Anal LPP); assay type: in vivo; details: vehicle i.v. then Compound A′ 1 mg/kg i.v.; 5 minutes after Compound A′; n=9
Procedure: Eighteen female SD rats were used. After overnight fasting, rats were intraperitoneally administered with urethane for anesthesia, and isoflurane inhalation was added during surgery. The abdomen was incised to expose the rectum, and a small incision of the rectum was made. A polyethylene catheter (SP61, Natsume) was inserted into the rectum through the rectum incision, and the tip of the catheter was positioned around 5 mm from the anal orifice. The other end of the catheter was connected with a pressure transducer and an infusion pump via three-way stopcocks, and the change in pressure in the rectum was measured using the pressure transducer, an electric signal amplifier, and an analog-to-digital converter. For administrating drugs, a polyethylene catheter (SP45, Natsume) was inserted into the femoral vein after exposing the vein by small incision.
After recovery period from surgery, while saline was infused at a speed of 0.1 mL/sec into the rectum using an infusion pump, change in the measured pressure—was observed. […] The peak value of the pressure recorded in the rectum during the course of the procedures was defined as “an Anal LPP” in this Example. […] The Anal LPP was again measured in the same way 5 minutes after the administration with Compound A′. The difference in Anal LPP from the Pre value (increased amount of Anal LPP) was calculated. […]

[5] = system: urethral resistance; assay: Rat urethral resistance (LPP) measured by high speed infusion of saline into the bladder; assay type: in vivo; details: for LPP Post: 30 minutes after administration; for LPP Post / LPP Increase / LPP Pre: mean ± SEM; for LPP Increase: Post minus Pre; for LPP Pre: before administration
Description: The rats were anesthetized with isoflurane. Their spinal cord was transected at the T8-T9 (the eighth thoracic cord—the ninth thoracic cord) level. After opening of the bladder dome, two polyethylene tubes (PE-100) were inserted into the bladder. The incised portion of the bladder was closed with sutures, and the other incisions were also closed. The rats were placed in Bollman cages. The catheter for intravesical pressure measurement was connected to a pressure transducer, while the catheter for saline filling was connected to a syringe filled with Evans Blue-dyed saline. Change in intravesical pressure was recorded using the pressure transducer via an electric signal amplifier and an analog-to-digital converter. After recovery of the animals from anesthesia, the intravesical pressure measurement was started, and saline was infused at a speed of 0.1 mL/sec into the bladder using an infusion pump. The infusion was stopped when the leakage of the saline from the urethral orifice was observed. Immediately thereafter, the bladder was emptied by releasing the pressure. In this operation, the peak of recorded intravesical pressure during the saline infusion was used as LPP in this Example. This measurement was repeated, and the average LPP from the last three measurements was used as the LPP value of the trial. The mean from 2 such trials was used as a Pre value. 0.5% MC was used as the vehicle. […] The difference in LPP from the Pre value (increased amount of LPP) was calculated. Regarding change in LPP before and after drug administration, the differences between the mean values of the drug-treated and vehicle-treated groups were analyzed by the one-tailed Williams' test.

[6] = SB 242084 0 mg/kg i.v. (vehicle) + Compound A′ 3 mg/kg i.d.
[7] = methiothepin 0 μg intrathecal (vehicle) + Compound A′ 3 mg/kg i.d.
[8] = methiothepin 0 mg/kg i.v. (vehicle) + Compound A′ 3 mg/kg i.d.

**Q.** `CC(C)N(C)c1cnc2c(n1)OCCNC2.Cl` [Compound A′, N-methyl-N-(1-methylethyl)-6,7,8,9-tetrahydropyrazino[2,3-f][1,4]oxazeine-3-amine] was tested. Which “LPP Post” value [1, 6] did it give?
**A.** 72.4 ± 9.5 cmH2O

**Q.** What about the “LPP Increase” value [1, 6] of the same compound?
**A.** 26.4 ± 5.9 cmH2O

**Q.** What about the “LPP Pre” value [1, 6] of the same compound?
**A.** 46.0 ± 5.1 cmH2O

**Q.** What about the “LPP Post” value [1, 7] of the same compound?
**A.** 72.1 ± 5.7 cmH2O

**Q.** What about the “LPP Increase” value [1, 7] of the same compound?
**A.** 31.8 ± 6.2 cmH2O

**Q.** What about the “LPP Pre” value [1, 7] of the same compound?
**A.** 40.3 ± 5.6 cmH2O

**Q.** What about the “LPP Post” value [1, 8] of the same compound?
**A.** 61.0 ± 8.3 cmH2O

**Q.** What about the “LPP Increase” value [1, 8] of the same compound?
**A.** 15.1 ± 4.0 cmH2O

**Q.** And the “LPP Pre” value [1, 8]?
**A.** 45.9 ± 4.4 cmH2O

**Q.** What about the “LPP Post” value ([2]; 0.3 mg/kg i.d.) of the same compound?
**A.** 55.0 ± 5.4 cmH2O

**Q.** What about the “LPP Increase” value ([2]; 0.3 mg/kg i.d.) of the same compound?
**A.** 7.8 ± 3.2 cmH2O

**Q.** And the “LPP Pre” value ([2]; 0.3 mg/kg i.d.)?
**A.** 47.2 ± 5.7 cmH2O

**Q.** And the “LPP Post” value ([2]; 1 mg/kg i.d.)?
**A.** 61.5 ± 4.9 cmH2O

**Q.** And the “LPP Increase” value ([2]; 1 mg/kg i.d.)?
**A.** 14.2 ± 2.7 cmH2O

**Q.** And the “LPP Pre” value ([2]; 1 mg/kg i.d.)?
**A.** 47.3 ± 5.0 cmH2O

**Q.** What about the “LPP Post” value ([2]; 3 mg/kg i.d.) of the same compound?
**A.** 77.3 ± 8.1 cmH2O

**Q.** What about the “LPP Increase” value ([2]; 3 mg/kg i.d.) of the same compound?
**A.** 29.7 ± 5.5 cmH2O

**Q.** And the “LPP Pre” value ([2]; 3 mg/kg i.d.)?
**A.** 47.6 ± 3.1 cmH2O

**Q.** What about the “Urethra-closing reflex response Post” value ([3]; 30 minutes after administration, intravesical pressure rise by 50 cm H2O) of the same compound?
**A.** 10.40 ± 1.78 cmH2O

**Q.** What about the “Urethra-closing reflex response Pre” value ([3]; before administration, intravesical pressure rise by 50 cm H2O) of the same compound?
**A.** 3.58 ± 0.42 cmH2O

**Q.** What about the “Urethra-closing reflex response Ratio (Post/Pr)” value ([3]; ratio of Post value to Pre value) of the same compound?
**A.** 2.82 ± 0.29

**Q.** And the “Anal LPP Increase” value [4]?
**A.** 9.2±3.0 cmH2O

**Q.** And the “LPP Post” value ([5]; 1.25 mg/kg p.o.)?
**A.** 63.2 ± 4.7 cmH2O

**Q.** What about the “LPP Increase” value ([5]; 1.25 mg/kg p.o.) of the same compound?
**A.** 5.5 ± 3.0 cmH2O

**Q.** And the “LPP Pre” value ([5]; 1.25 mg/kg p.o.)?
**A.** 57.7 ± 3.6 cmH2O

**Q.** What about the “LPP Post” value ([5]; 2.5 mg/kg p.o.) of the same compound?
**A.** 70.2 ± 3.8 cmH2O

**Q.** What about the “LPP Increase” value ([5]; 2.5 mg/kg p.o.) of the same compound?
**A.** 10.9 ± 2.2 cmH2O

**Q.** What about the “LPP Pre” value ([5]; 2.5 mg/kg p.o.) of the same compound?
**A.** 59.2 ± 2.6 cmH2O

**Q.** And the “LPP Post” value ([5]; 5 mg/kg p.o.)?
**A.** 75.9 ± 3.3 cmH2O

**Q.** What about the “LPP Increase” value ([5]; 5 mg/kg p.o.) of the same compound?
**A.** 15.3 ± 3.7 cmH2O

**Q.** What about the “LPP Pre” value ([5]; 5 mg/kg p.o.) of the same compound?
**A.** 60.6 ± 3.6 cmH2O

**Q.** And the “LPP Post” value ([5]; 10 mg/kg p.o.)?
**A.** 78.4 ± 5.6 cmH2O

**Q.** What about the “LPP Increase” value ([5]; 10 mg/kg p.o.) of the same compound?
**A.** 21.7 ± 4.4 cmH2O

**Q.** What about the “LPP Pre” value ([5]; 10 mg/kg p.o.) of the same compound?
**A.** 56.7 ± 2.4 cmH2O

**Q.** And the “LPP Post” value ([5]; 20 mg/kg p.o.)?
**A.** 77.7 ± 3.5 cmH2O

**Q.** What about the “LPP Increase” value ([5]; 20 mg/kg p.o.) of the same compound?
**A.** 21.5 ± 3.4 cmH2O

**Q.** What about the “LPP Pre” value ([5]; 20 mg/kg p.o.) of the same compound?
**A.** 56.3 ± 5.1 cmH2O

**Q.** What about the “LPP10, the dose that increases LPP by 10 cm H2O” value ([5]; oral administration, high speed saline infusion method) of the same compound?
**A.** 1.6 mg/kg
